Test results taken from patent US11566039B2, “Lincosamide antibiotics and uses thereof” (President and Fellows of Harvard College, priority 2017, dated 2023).
In brackets after ≈: the same amount, converted by molar mass. Like-named read-outs stand apart in the source and are kept apart here.

What was measured:
Format in all cases: cell-based
[1] = system: S. aureus MP-549 msr(a) USA 300; assay: MIC against S. aureus MP-549 msr(a) USA 300; conditions: Staphylococcus aureus, USA300, S. aureus MP-549 msr(a) USA 300
S. pneumoniae ATCC 49619 = assay: MIC against S. pneumoniae ATCC 49619; conditions: Streptococcus pneumoniae, ATCC49619, S. pneumoniae ATCC 49619; read-out: MIC
[2] = system: S. pneumoniae MMX 3028 cErmB; assay: MIC against S. pneumoniae MMX 3028 cErmB; conditions: Streptococcus pneumoniae, MMX3028CERMB
[3] = system: S. pneumoniae MMX 3031 cMefA; assay: MIC against S. pneumoniae MMX 3031 cMefA; conditions: Streptococcus pneumoniae, MMX3031CMEFA
S. pyogenes ATCC 19615 = assay: MIC against S. pyogenes ATCC 19615; conditions: Streptococcus pyogenes, ATCC19615, S. pyogenes ATCC 19615; read-out: MIC
[4] = system: S. pyogenes MMX 946 Macrolide-Resistant; assay: MIC against S. pyogenes MMX 946 Macrolide-Resistant; conditions: Streptococcus pyogenes
E. faecalis ATCC 29212 = assay: MIC against E. faecalis ATCC 29212; conditions: Enterococcus faecalis, ATCC29212, E. faecalis ATCC 29212; read-out: MIC
C. difficile BAA 1805 = assay: MIC against C. difficile BAA 1805; conditions: Clostridioides difficile, BAA1805
B. fragilis ATCC 25285 = assay: MIC against B. fragilis ATCC 25285; conditions: Bacteroides fragilis, ATCC25285
K. pneumoniae ATCC 10031 = assay: MIC against K. pneumoniae ATCC 10031; conditions: Klebsiella pneumoniae, ATCC10031, read-out: MIC
E. coli MP-9 ΔTolC = assay: MIC against E. coli MP-9 ΔTolC; conditions: Escherichia coli
[5] = system: E. coli MP-74 LptD mutant; assay: MIC against E. coli MP-74 LptD mutant; conditions: Escherichia coli
H. influenzae ATCC 49247 = assay: MIC against H. influenzae ATCC 49247; conditions: Haemophilus influenzae, ATCC49247, H. influenzae ATCC 49247; read-out: MIC
S. aureus ATCC 29213 = assay: MIC against S. aureus ATCC 29213; conditions: Staphylococcus aureus, ATCC29213, S. aureus ATCC 29213; read-out: MIC
S. aureus MMX 3035 cErmA = assay: MIC against S. aureus MMX 3035 cErmA; conditions: Staphylococcus aureus, MMX3035CERMA
E. coli ATCC 25922 = assay: MIC against E. coli ATCC 25922; conditions: Escherichia coli, ATCC25922, read-out: MIC
[6] = system: E. faecalis MMX 847 MacRes; assay: MIC against E. faecalis MMX 847 MacRes; conditions: Enterococcus faecalis, MMX847MACRES
S. aureus BAA 977 iErmA = assay: MIC against S. aureus BAA 977 iErmA; conditions: Staphylococcus aureus, BAA977
[7] = S. pneumoniae MMX 3028 cErmB, read-out: MIC
[8] = S. pyogenes MMX 946 Macrolide-Resistant (MacRes), read-out: MIC

| Compound | MIC [1] [µg/mL] | MIC (S. pneumoniae ATCC 49619) [µg/mL] | MIC [2] [µg/mL] | MIC [3] [µg/mL] | MIC (S. pyogenes ATCC 19615) [µg/mL] | MIC [4] [µg/mL] | MIC (E. faecalis ATCC 29212) [µg/mL] | MIC (C. difficile BAA 1805) [µg/mL] | MIC (B. fragilis ATCC 25285) [µg/mL] | MIC (K. pneumoniae ATCC 10031) [µg/mL] | MIC (E. coli MP-9 ΔTolC) [µg/mL] | MIC [5] [µg/mL] | MIC (H. influenzae ATCC 49247) [µg/mL] | MIC (S. aureus ATCC 29213) [µg/mL] | MIC (S. aureus MMX 3035 cErmA) [µg/mL] | MIC [2, 7] [µg/mL] | MIC [4, 8] [µg/mL] | MIC (E. coli ATCC 25922) [µg/mL] | MIC [6] [µg/mL] | MIC (S. aureus BAA 977 iErmA) [µg/mL] |
| --- | --- | --- | --- | --- | --- | --- | --- | --- | --- | --- | --- | --- | --- | --- | --- | --- | --- | --- | --- | --- |
| CCC[C@@H]1C[C@@H](C(=O)N[C@@H]([C@H]2O[C@H](SC)[C@H](O)[C@@H](O)[C@H]2O)[C@H](C)Cl)N(C)C1 [Clindamycin, clindamycin, reference compound] | 0.125 (≈ 0.294 µM) | 0.12 (≈ 0.282 µM) | > 64 | 0.06 (≈ 0.141 µM) | 0.06 (≈ 0.141 µM) | > 64 | 16 (≈ 37.6 µM) | 8 (≈ 18.8 µM) | 0.5 (≈ 1.18 µM) | 8 (≈ 18.8 µM) | 8 (≈ 18.8 µM) | 2 (≈ 4.71 µM) | 16 (≈ 37.6 µM) | – | – | – | – | – | – | – |
| CCC[C@@H]1C[C@@H](C(=O)N[C@H](CNc2ccc(-c3cccnc3)cc2)[C@H]2OC(SC)[C@H](O)C(O)C2O)N(C)C1 (some centres unmarked) [FSA-214087] | 32 (≈ 58.7 µM) | 8 (≈ 14.7 µM) | – | 32 (≈ 58.7 µM) | 8 (≈ 14.7 µM) | – | > 64 | – | – | – | > 64 | – | – | 32 (≈ 58.7 µM) | > 64 | > 64 | > 64 | > 64 | > 64 | – |
| CCC[C@@H]1C[C@@H](C(=O)N[C@H](CN=[N+]=[N-])[C@H]2OC(SC)[C@H](O)C(O)C2O)N(C)C1 (some centres unmarked) [FSA-215003] | 0.125 (≈ 0.299 µM) | 4 (≈ 9.58 µM) | – | 0.125 (≈ 0.299 µM) | 2 (≈ 4.79 µM) | – | 32 (≈ 76.6 µM) | – | – | – | 4 (≈ 9.58 µM) | – | – | 8 (≈ 19.2 µM) | > 64 | > 64 | > 64 | > 64 | > 64 | – |
| C=C[C@@H](NC(=O)[C@@H]1C[C@@H](CCC)CN1C)[C@H]1OC(SC)[C@H](O)C(O)C1O (some centres unmarked) [FSA-215031] | – | 2 (≈ 5.15 µM) | – | – | 2 (≈ 5.15 µM) | – | 32 (≈ 82.4 µM) | – | – | > 64 | > 64 | – | – | 8 (≈ 20.6 µM) | – | – | – | > 64 | – | 8 (≈ 20.6 µM) |
| CCC[C@@H]1C[C@@H](C(=O)N[C@H](COC(=O)Nc2ccccc2)[C@H]2OC(SC)[C@H](O)C(O)C2O)N(C)C1 (some centres unmarked) [FSA-215036] | – | 16 (≈ 31.3 µM) | – | – | 64 (≈ 125 µM) | – | > 64 | – | – | > 64 | > 64 | – | – | > 64 | – | – | – | > 64 | – | > 64 |
| CCC[C@@H]1C[C@@H](C(=O)N[C@H]([C@H](C)N=[N+]=[N-])[C@H]2OC(SC)[C@H](O)C(O)C2O)N(C)C1 (stereo partly drawn) [FSA-215038, 7-(S)-deoxyazidolincomycin] | – | 0.25 (≈ 0.579 µM) | – | – | 0.125 (≈ 0.29 µM) | – | 32 (≈ 74.1 µM) | – | – | > 64 | > 64 | – | – | 0.25 (≈ 0.579 µM) | – | – | – | > 64 | – | 0.5 (≈ 1.16 µM) |
| CCC[C@@H]1C[C@@H](C(=O)N[C@H]([C@H](C)N)[C@H]2OC(SC)[C@H](O)C(O)C2O)N(C)C1 (stereo partly drawn) [FSA-215049, 7-(S)-deoxyaminolincomycin] | 32 (≈ 78.9 µM) | 8 (≈ 19.7 µM) | – | – | 16 (≈ 39.5 µM) | – | > 64 | > 64 | – | > 64 | > 64 | > 64 | > 64 | 64 (≈ 158 µM) | – | – | – | > 64 | – | 64 (≈ 158 µM) |
| CCC[C@@H]1C[C@@H](C(=O)N[C@H]([C@H](C)NC(=O)CCCN)[C@H]2OC(SC)[C@H](O)C(O)C2O)N(C)C1 (some centres unmarked) [FSA-215052] | – | > 64 | – | – | 32 (≈ 65.2 µM) | – | > 64 | – | – | > 64 | > 64 | – | – | > 64 | – | – | – | > 64 | – | > 64 |
| CCC[C@@H]1C[C@@H](C(=O)N[C@H]([C@H](C)NC(=O)CCN)[C@H]2OC(SC)[C@H](O)C(O)C2O)N(C)C1 (some centres unmarked) [FSA-215054] | – | > 64 | – | – | 64 (≈ 134 µM) | – | > 64 | – | – | > 64 | > 64 | – | – | > 64 | – | – | – | > 64 | – | > 64 |
